Assay results from US8546427B2, “Tetrahydroquinoline derivatives” (Hoffmann-La Roche Inc., priority 2010, dated 2013).

Tested on: AMP-activated protein kinase (AMPK)
Assay: ADP Quest assay for AMPK activators
Type: biochemical
Parameters: key: fold AMPK activation at 30 μM activator vs none
Settings: fold of AMPK activation to phosphorylate SAMS peptide without and with an activator at the concentration of 30 μM
Procedure: This method evaluates AMP-activated protein kinase (AMPK) activity through detecting the accumulation of ADP product using an ADP Quest kit and determining the E30 values of the small molecular AMPK activators. ADP Quest kit (DiscoveRx, Fremont, Calif.) is stored at −20° C. before use. Before an experiment, thaw the kit (include assay buffer, ADP standard solution, reagent A and reagent B) and equilibrate to room temperature. Dispense the ADP Quest reagents into single-use aliquots and store at −20° C. The compound concentrations typically range from 0 μM to 100 μM by 2-fold dilution. AMP concentrations range from 0.98 μM to 1 mM as the reference control. In an assay, thaw and equilibrate the assay buffer, reagent A and reagent B to room temperature for 30 minutes prior to use. Mix ATP, SAMS peptide substrate and compound, and place them into the 384-well assay plate. Add reagent A and B based on the assay kit protocol. Incubate the assay plate at room temperature for 30 minutes after addition the mixture followed by the addition of AMPK protein (Invitrogen, CA) to initiate the AMPK phosphorylation reaction. At the same time, reactions with AMPK activator AMP in the absence of enzyme is included as blank control. The reaction fluorescence signal is monitored and recorded on Envision in kinetic mode with the excitation wavelength of 530 nm and emission wavelength of 590 nm. The E30 value, defined as the fold of AMPK activation to phosphorylate SAMS peptide without and with an activator at the concentration of 30 μM, is calculated and analyzed using Prism 5.0.

Row | SMILES | E30
1 | CC1(C)CC(c2ccccc2NS(=O)(=O)c2cccnc2)Nc2ccc(C(=O)O)cc21 (stereo not drawn) [Example-34, 4,4-Dimethyl-2-[2-(pyridine-3-sulfonylamino)-phenyl]-1,2,3,4-tetrahydro-quinoline-6-carboxylic acid] | 2.39
2 | CC1(C)CC(c2ccccc2NS(=O)(=O)c2ccccc2)Nc2ccc(C(=O)O)cc21 (stereo not drawn) [Example-41, 2-(2-Benzenesulfonylamino-phenyl)-4,4-dimethyl-1,2,3,4-tetrahydro-quinoline-6-carboxylic acid] | 2.63
3 | CC1(C)CC(c2ccccc2NS(=O)(=O)c2ccccc2F)Nc2ccc(Cl)cc21 (stereo not drawn) [Example-21, N-[2-(6-Chloro-4,4-dimethyl-1,2,3,4-tetrahydro-quinolin-2-yl)-phenyl]-2-fluoro-benzenesulfonamide] | 1.75
4 | CC1(C)CC(c2ccccc2NS(=O)(=O)c2cccc(F)c2)Nc2ccc(C(=O)O)cc21 (stereo not drawn) [Example-42, 2-[2-(3-Fluoro-benzenesulfonylamino)-phenyl]-4,4-dimethyl-1,2,3,4-tetrahydro-quinoline-6-carboxylic acid] | 2.41
5 | CCS(=O)(=O)Nc1ccccc1C1CC(C)(C)c2cc(Cl)ccc2N1 (stereo not drawn) [Example-16, Ethanesulfonic acid [2-(6-chloro-4,4-dimethyl-1,2,3,4-tetrahydro-quinolin-2-yl)-phenyl]-amide] | 1.89
6 | CCS(=O)(=O)Nc1ccccc1C1CC(C)(C)c2cc(C(=O)O)ccc2N1 (stereo not drawn) [Example-33, 2-(2-Ethanesulfonylamino-phenyl)-4,4-dimethyl-1,2,3,4-tetrahydro-quinoline-6-carboxylic acid] | 2.13

Now from value to compound:

Row | E30 | SMILES
7 | 2.72 | CC1(C)CC(c2cccc(NC3(C(=O)O)CC3)c2)Nc2c(C(=O)O)cc(Cl)cc21 (stereo not drawn) [Example-6, 2-[3-(1-Carboxy-cyclopropylamino)-phenyl]-6-chloro-4,4-dimethyl-1,2,3,4-tetrahydro-quinoline-8-carboxylic acid]
8 | 1.57 | CC(C)(Nc1ccccc1C1CC(C)(C)c2cc(C#N)ccc2N1)C(=O)O (stereo not drawn) [Example-20, 2-[2-(6-Cyano-4,4-dimethyl-1,2,3,4-tetrahydro-quinolin-2-yl)-phenylamino]-2-methyl-propionic acid]
9 | 1.79 | CC1(C)CC(c2cccc(NC3(C(=O)O)CC3)c2)Nc2c(Cl)cc(C#N)cc21 (stereo not drawn) [Example-18, 1-[3-(8-Chloro-6-cyano-4,4-dimethyl-1,2,3,4-tetrahydro-quinolin-2-yl)-phenylamino]-cyclopropanecarboxylic acid]
10 | 2.70 | CC(C)(Nc1cccc(C2CC(C)(C)c3cc(C#N)cc(Cl)c3N2)c1)C(=O)O (stereo not drawn) [Example-29, 2-[3-(8-Chloro-6-cyano-4,4-dimethyl-1,2,3,4-tetrahydro-quinolin-2-yl)-phenylamino]-2-methyl-propionic acid]
11 | 1.20 | CCS(=O)(=O)Nc1ccccc1C1CC(C)(C)c2cc(C(F)(F)F)ccc2N1 (stereo not drawn) [Example-46, Ethanesulfonic acid [2-(4,4-dimethyl-6-trifluoromethyl-1,2,3,4-tetrahydro-quinolin-2-yl)-phenyl]-amide]
12 | 2.08 | CN1c2ccc(C(F)(F)F)cc2C(C)(C)CC1c1cccc(NC2(C(=O)O)CC2)c1 (stereo not drawn) [Example-13, 1-[3-(1,4,4-Trimethyl-6-trifluoromethyl-1,2,3,4-tetrahydro-quinolin-2-yl)-phenylamino]-cyclopropanecarboxylic acid]
